Assay results published in patent US20050148523A1, “Method of treating HIV infection in atazanavir-resistant patients using a combination of atazanavir and another protease inhibitor” (priority 2003, published 2005).

Columns and labels:
[1] = test system: HIV-1 in treatment naive patients; assay: Clinical study AI424-034, virological outcomes and resistance; assay type: in vivo, human; details: study 034
Text: (§1) Study Population. Viral samples (baseline and on-treatment, where available) were obtained from patients who experienced virologic failure while enrolled in studies AI424-007/041 [12] (ATV+d4T and ddI), AI424-008/044 [13, 14] (ATV+d4T and 3TC) and AI424-034 [9] (ATV or EFV in combination with ZDV and 3TC). […] In general, virologic failure specimens were selected for further resistance evaluation only if they contained >1,000 copies/mL HIV-1 RNA and there was no indication that the specimen came from a patient at a time of transient non-adherence to study drug(s). […] For non-responders, samples from week 16 (or 24) were tested. Drug adherence was determined from pill counts of returned study medications at each scheduled visit.
ATV resistance was defined as ≧2-fold decrease in ATV susceptibility from baseline, a Fold Change (FC) of ≧2.5 (relative to the Nl4-3 reference strain), or evidence of an isoleucine (Ile) to leucine (Leu) change at amino acid residue 50 (I50L). Resistance levels for NFV and EFV were also defined as a FC reaching 2.5.

[2] = test system: clinical isolates containing an I50V; assay: PhenoSense phenotypic susceptibility of clinical isolates containing I50V; assay type: cell-based, HIV-1
Text: (§2) Drug Susceptibility Assays. Clinical isolates were subjected to phenotypic (PhenoSense™) and genotypic (GeneSeq™) analysis by Virologic, Inc. as described elsewhere.
Because an I50V substitution is a signature mutation sometimes associated with APV resistance, the cross-resistance relationship between ATV and APV was further examined.

[3] = target: HIV-1 protease (Human immunodeficiency virus type 1 group M subtype B, UniProt P04585); details: cited from earlier work
[4] = test system: clinical isolates containing an I50L substitution (and their baseline isolates); assay: PhenoSense phenotypic susceptibility of clinical isolates from ATV-treated patients who developed I50L; assay type: cell-based, HIV-1
Text: as §1, §2

COC(=O)N[C@H](C(=O)N[C@@H](Cc1ccccc1)[C@@H](O)CN(Cc1ccc(-c2ccccn2)cc1)NC(=O)[C@@H](NC(=O)OC)C(C)(C)C)C(C)(C)C [ATV, atazanavir]
Virologic Failures (%) [1]: 17%
Virologic Failures, number [1]: 69
number of the eight isolates with FC less than 1.0 ([2]; 8 I50V isolates resistant to APV): Seven
Susceptibility, Fold Change in EC50 relative to reference strain ([2]; Isolate with I50V 1): 0.3 Fold Change
Susceptibility, Fold Change in EC50 relative to reference strain ([2]; Isolate with I50V 2): 0.4 Fold Change
Susceptibility, Fold Change in EC50 relative to reference strain ([2]; Isolate with I50V 3): 0.6 Fold Change
Susceptibility, Fold Change in EC50 relative to reference strain ([2]; Isolate with I50V 4): 1.2 Fold Change
Susceptibility, Fold Change in EC50 relative to reference strain ([2]; Isolate with I50V 5): 0.4 Fold Change
Susceptibility, Fold Change in EC50 relative to reference strain ([2]; Isolate with I50V 6): 0.8 Fold Change
Susceptibility, Fold Change in EC50 relative to reference strain ([2]; Isolate with I50V 7): 0.5 Fold Change
Susceptibility, Fold Change in EC50 relative to reference strain ([2]; Isolate with I50V 8): 0.5 Fold Change
number of the eight isolates with FC of 0.4 or less ([2]; {}): 3
Ki [3]: < 1 nM
median FC ([4]; I50L isolates, relative to NL4-3 reference strain): 9.6 fold
Susceptibility, Fold Change in EC50 relative to reference strain ([4]; Isolate with I50L 1): 3.5 Fold Change
Susceptibility, Fold Change in EC50 relative to reference strain ([4]; Isolate with I50L 2): 4.9 Fold Change
Susceptibility, Fold Change in EC50 relative to reference strain ([4]; Isolate with I50L 3): 5.2 Fold Change
Susceptibility, Fold Change in EC50 relative to reference strain ([4]; Isolate with I50L 4): 5.8 Fold Change
Susceptibility, Fold Change in EC50 relative to reference strain ([4]; Isolate with I50L 5): 6.7 Fold Change
Susceptibility, Fold Change in EC50 relative to reference strain ([4]; Isolate with I50L 6): 7.9 Fold Change
Susceptibility, Fold Change in EC50 relative to reference strain ([4]; Isolate with I50L 7): 8.6 Fold Change
Susceptibility, Fold Change in EC50 relative to reference strain ([4]; Isolate with I50L 8): 8.8 Fold Change
Susceptibility, Fold Change in EC50 relative to reference strain ([4]; Isolate with I50L 9): 9.5 Fold Change
Susceptibility, Fold Change in EC50 relative to reference strain ([4]; Isolate with I50L 10): 10 Fold Change
Susceptibility, Fold Change in EC50 relative to reference strain ([4]; Isolate with I50L 11): 11 Fold Change
Susceptibility, Fold Change in EC50 relative to reference strain ([4]; Isolate with I50L 12): 12 Fold Change
Susceptibility, Fold Change in EC50 relative to reference strain ([4]; Isolate with I50L 13): 13 Fold Change
Susceptibility, Fold Change in EC50 relative to reference strain ([4]; Isolate with I50L 14): 19 Fold Change
Susceptibility, Fold Change in EC50 relative to reference strain ([4]; Isolate with I50L 15): 22 Fold Change
Susceptibility, Fold Change in EC50 relative to reference strain ([4]; Isolate with I50L 16): 29 Fold Change
Susceptibility, Fold Change in EC50 relative to reference strain ([4]; Subject 076, Week 80): 9.5 Fold Change
Susceptibility, Fold Change in EC50 relative to reference strain ([4]; Subject 076, Week 92): 16 Fold Change
Susceptibility, Fold Change in EC50 relative to reference strain ([4]; Subject 100, Week 1.7): 1.5 Fold Change
Susceptibility, Fold Change in EC50 relative to reference strain ([4]; Subject 169, Week 0.1): 1.1 Fold Change
Susceptibility, Fold Change in EC50 relative to reference strain ([4]; Subject 169, Week 90): 12 Fold Change
Susceptibility, Fold Change in EC50 relative to reference strain ([4]; Subject 169, Week 102): 9.2 Fold Change
Subceptibility, Fold Change in EC50 relative to reference strain ([4]; Subject 169, Week 114): 13 Fold Change
Susceptibility, Fold Change in EC50 relative to reference strain ([4]; Subject 362, Week 0.1): 1.3 Fold Change
Susceptibility, Fold Change in EC50 relative to reference strain ([4]; Subject 362, Week 108): 12 Fold Change
median decrease in susceptibility from baseline ([4]; on emergence of I50L, n=15): 9.6 fold
FC ([4]; same isolate prior to developing the I50L change): 0.2
FC ([4]; the one I50L isolate with lowest FC, on treatment): 1.5
FC ([4]; three on treatment isolates containing I50I/L mixtures): below 1
median FC ([4]; viruses containing the I50L substitution, FIG. 3): selective resistance
